Experimental data from patent publication US6716987B1, “Derivatives of benzofuran or benzodioxazole compounds” (Kyowa Hakko Kogyo Co., Ltd., priority 1995, dated 2004).

Tested on: cAMP-specific phosphodiesterase (PDE IV)
Test: Inhibition of the PDE IV enzyme derived from a dog trachea
Type: biochemical
Conditions: test compound 10^−6 M; PDE IV from dog tracheal smooth muscle; substrate cAMP 1 μM
Experimental: cAMP-specific phosphodiesterase (PDE IV) was purified from a dog tracheal smooth muscle according to the method of Torphy et al. [Molecular Pharmacol., 37, 206-214 (1990)]. The PDE activity was measured by the following two steps according to the method of Kincaid and Manganiello et al. [Method in Enzymology (J. D. Corbin and R. A. Jonson, Eds.), 199, 457-470 (1988)]. Using [^3]cAMP (at a final concentration of 1 μM) as a substrate, the reaction was carried out in a standard mixture containing N,N-bis(2-hydroxyethyl)-2-aminoethanesulfonic acid (50 mM, pH=7.2), MgCl2 (1 mM), and soybean trypsin inhibitor (0.1 mg/ml). The reaction was initiated by adding the enzyme, followed by incubation at 30° C. for 10 to 30 minutes. After stopping the reaction with hydrochloric acid, the generated […] was completely converted to adenosine by 5′-nucleotidase.
The resultant was subjected to chromatography on DEAE-Sephadex A-25, and radio activity of the eluted [^3H] adenosine was counted using a scintillation counter. Each of the test drugs was dissolved in DMSO (final concentration 1.7%) and then added to the mixture.

SMILES | Enzyme Inhibitory Activity (%, 10^−6 M) [%]
COc1ccc(/C=C/c2ccncc2)c2c1OCC2C (racemic) [Compound 79, (E)-(±)-7-Methoxy-3-methyl-4-[2-(4-pyridyl)ethenyl]-2,3-dihydrobenzofuran] | 45
COc1ccc(C(=O)Cc2ccncc2)c2c1O[C@@H]1CCCC[C@H]21.Cl (racemic) [Compound 105, (±)-cis-6-Methoxy-9-[1-oxo-2-(4-pyridyl)ethyl]-1,2,3,4,4a,9b-hexahydrodibenzofuran.hydrochloride] | 66
COc1ccc(C(=O)Nc2c(Cl)cncc2Cl)c2ccoc12 [Compound 33, 4-[(3,5-Dichloro-4-pyridyl)aminocarbonyl]-7-methoxy-benzofuran] | 71
COc1ccc(C(=O)Nc2c(Cl)cncc2Cl)c2cc(C#N)oc12 [Compound 34, 2-Cyano-4-(3,5-dichloropyridin-4-ylaminocarbonyl)-7-methoxybenzofuran] | 100
COc1ccc(C(=O)Nc2ccncc2)c2cc(-c3ccncc3)oc12.Cl.Cl [Compound 39, 7-Methoxy-2-(4-pyridyl)-4-(4-pyridylaminocarbonyl)-benzofuran.2 hydrochloride] | 77
COc1ccc(C(=O)Nc2ccncc2)c2cc(-c3ccccn3)oc12.Cl.Cl [Compound 41, 7-Methoxy-2-(2-pyridyl)-4-[(4-pyridylamino)carbonyl]-benzofuran.2 hydrochloride] | 58
CCC1(CC)Cc2c(CCc3c(Cl)cncc3Cl)ccc(OC)c2O1.CS(=O)(=O)O [Compound 50, 4-[2-(3,5-Dichloro-4-pyridyl)ethyl]-2,2-diethyl-7-methoxy-2,3-dihydrobenzofuran.methanesulfonate] | 69
CCC1(CC)Cc2c(CCc3ccncc3)ccc(OC)c2O1.Cl [Compound 51, 2,2-Diethyl-7-methoxy-4-[2-(4-pyridyl)ethyl]-2,3-dihydrobenzofuran.hydrochloride] | 67
COc1ccc(CCc2c(Cl)cncc2Cl)c2c1OC1(CCCC1)C2.CS(=O)(=O)O [Compound 52, 4-[2-(3,5-Dichloro-4-pyridyl)ethyl]-7-methoxy-spiro[2,3-dihydrobenzofuran-2,1′-cyclopentane].methanesulfonate] | 86
COc1ccc(CCc2ccncc2)c2c1OC1(CCCC1)C2.Cl [Compound 53, 7-Methoxy-4-[2-(4-pyridyl)ethyl]-spiro[2,3-dihydro-benzofuran-2,1′-cyclopentane].hydrochloride] | 84
COc1ccc(CCc2c(Cl)cncc2Cl)c2c1OC1(CCCCC1)C2.CS(=O)(=O)O [Compound 54, 4-[2-(3,5-Dichloro-4-pyridyl)ethyl]-7-methoxy-spiro[2,3-dihydrobenzofuran-2,1′-cyclohexane].methanesulfonate] | 81
COc1ccc(CCc2ccncc2)c2c1OC1(CCCCC1)C2.Cl [Compound 55, 7-Methoxy-4-[2-(4-pyridyl)ethyl]-spiro[2,3-dihydro-benzofuran-2,1′-cyclohexane].hydrochloride] | 86
COc1ccc(C(=Cc2ccncc2)c2ccccc2)c2c1OC(C)(C)C2 [Compound 70, 7-Methoxy-2,2-dimethyl-4-[1-phenyl-2-(4-pyridyl)-ethenyl]-2,3-dihydrobenzofuran] | 68
CCC1(CC)Cc2c(/C=C/c3c(Cl)cncc3Cl)ccc(OC)c2O1.CS(=O)(=O)O [Compound 71, (E)-2,2-Diethyl-7-methoxy-4-[2-(3,5-dichloro-4-pyridyl)ethenyl]-2,3-dihydrobenzofuran.methanesulfonate] | 87
COc1ccc(/C=C/c2ccncc2)c2c1OC1(CCCC1)C2.Cl [Compound 74, (E)-7-Methoxy-4-[2-(4-pyridyl)ethenyl]-spiro[2,3-dihydrobenzofuran-2,1′-cyclopentane].hydrochloride] | 73
COc1ccc(C(C)=Cc2ccncc2)c2c1OC1(CCCC1)C2 [Compound 75, 7-Methoxy-4-[1-methyl-2-(4-pyridyl)ethenyl]-spiro[2,3-dihydrobenzofuran-2,1′-cyclopentane]] | 72
COc1ccc(/C=C/c2c(Cl)cncc2Cl)c2c1OC1(CCCCC1)C2.CS(=O)(=O)O [Compound 76, (E)-4-[2-(3,5-Dichloro-4-pyridyl)ethenyl]-7-methoxy-spiro[2,3-dihydrobenzofuran-2,1′-cyclohexane].methanesulfonate] | 93
COc1ccc(/C=C/c2ccncc2)c2c1OC1(CCCCC1)C2.Cl [Compound 77, (E)-7-Methoxy-4-[2-(4-pyridyl)ethenyl]-spiro[2,3-dihydrobenzofuran-2,1′-cyclohexane].hydrochloride] | 87
COc1ccc(/C=C/c2ccncc2)c2cc(-c3ccccc3)oc12.Cl [Compound 81, (E)-7-Methoxy-2-phenyl-4-[2-(4-pyridyl)ethenyl]-benzofuran.hydrochloride] | 56
COc1ccc(/C=C/c2ccncc2)c2cc(-c3ccncc3)oc12.Cl.Cl [Compound 83, (E)-7-Methoxy-2-(4-pyridyl)-4-[2-(4-pyridyl)ethenyl]-benzofuran.2 hydrochloride] | 89
COc1ccc(/C=C/c2ccncc2)c2cc(-c3ccccn3)oc12.Cl.Cl [Compound 85, (E)-7-Methoxy-2-(2-pyridyl)-4-[2-(4-pyridyl)ethenyl]-benzofuran.2 hydrochloride] | 69
COC(=O)c1cccc(NC(=O)/C=C/c2ccc(OC)c3c2CC2(CCCC2)O3)c1 [Compound 93, (E)-7-Methoxy-4-{2-[3-(methoxycarbony)phenyl-1-ylaminocarbonyl]ethenyl}-spiro[2,3-dihydrobenzofuran-2,1′-cyclopentane]] | 23
CCC1(CC)Cc2c(C(=O)Cc3ccncc3)ccc(OC)c2O1.Cl [Compound 98, 2,2-Diethyl-7-methoxy-4-[1-oxo-2-(4-pyridyl)ethyl]-2,3-dihydrobenzofuran.hydrochloride] | 85
COc1ccc(C(=O)Cc2ccccc2)c2cc(C(=O)c3ccccc3)oc12 [Compound 107, 2-Benzoyl-7-methoxy-4-(1-oxo-2-phenylethyl)benzofuran] | 63
CCCCc1cc2c(C(=O)Cc3ccncc3)ccc(OC)c2o1.Cl [Compound 109, 2-Butyl-7-methoxy-4-[1-oxo-2-(4-pyridyl)ethyl]-benzofuran.hydrochloride] | 68
COc1ccc(C(=O)Cc2ccncc2)c2cc(CC(C)C)oc12.Cl [Compound 110, 7-Methoxy-2-(2-methylpropyl)-4-[1-oxo-2-(4-pyridyl)-ethyl]benzofuran.hydrochloride] | 80
COc1ccc(C(=O)Cc2ccncc2)c2cc(-c3ccccc3)oc12.Cl [Compound 111, 7-Methoxy-4-[1-oxo-2-(4-pyridyl)ethyl]-2-phenyl-benzofuran.hydrochloride] | 69
COc1ccc(C(=O)Cc2ccncc2)c2cc(-c3ccncc3)oc12.Cl.Cl [Compound 115, 7-Methoxy-4-[1-oxo-2-(4-pyridyl)ethyl]-2-(4-pyridyl)-benzofuran.2 hydrochloride] | 85
